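Method: 48-hour compound exposure of cells in 96-well plates, five concentrations, linear interpolation of endpoints. GI50 is the concentration that inhibits growth by half. Definition used: TGI = concentration required for complete inhibition of growth.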
What was measured:
Test in all cases: NCI anticancer screen, dose series, 48 h
[1] = tested on: ACHN renal
[2] = tested on: HCT-116 colon
[3] = tested on: M14 melanoma
[4] = tested on: NCI-H226 lung
[5] = tested on: OVCAR-3 ovarian
[6] = tested on: SF-268 CNS
[7] = tested on: SK-MEL-2 melanoma
[8] = tested on: SW-620 colon
[9] = tested on: UACC-257 melanoma
[10] = tested on: UO-31 renal

| SMILES | TGI [1] | TGI [2] | TGI [3] | TGI [4] | TGI [5] | TGI [6] | TGI [7] | TGI [8] | TGI [9] | TGI [10] | GI50 [1] | GI50 [2] | GI50 [3] | GI50 [4] | GI50 [5] | GI50 [6] | GI50 [7] | GI50 [8] | GI50 [9] | GI50 [10] |
| --- | --- | --- | --- | --- | --- | --- | --- | --- | --- | --- | --- | --- | --- | --- | --- | --- | --- | --- | --- | --- |
| COc1ccc(OC)c2c(=S)c3ccccc3[nH]c12 | > 100 µM | > 100 µM | > 100 µM | > 21.5 µM | > 100 µM | > 100 µM | > 100 µM | > 100 µM | > 100 µM | > 100 µM | – | – | – | – | – | – | – | – | – | – |
| N#C/C(=C\c1ccc(Br)cc1)n1nnc2ccccc21 | 2.01 µM | 1.93 µM | 3.44 µM | 6.75 µM | 0.604 µM | 9.24 µM | 3.42 µM | 1.57 µM | 4.26 µM | 1.63 µM | 0.521 µM | 0.518 µM | 0.386 µM | 1.4 µM | 0.244 µM | 2.62 µM | 0.71 µM | 0.318 µM | 1.19 µM | 0.449 µM |
| COc1ccccc1-c1cc(=O)c2ccc(OC)c(OC)c2o1 | > 100 µM | > 100 µM | > 100 µM | > 100 µM | > 100 µM | > 100 µM | > 100 µM | > 100 µM | > 100 µM | > 100 µM | – | – | – | – | – | – | – | – | – | – |
| COc1ccc2c(c1)/C(=N/OC(C)=O)c1c-2c(=O)[nH]c2ccccc12 | 28.2 µM | 12.4 µM | 27.4 µM | 29.8 µM | 36.3 µM | > 100 µM | 29 µM | 30.3 µM | 34.2 µM | 25.2 µM | 14.2 µM | 3.35 µM | 13.2 µM | 14.3 µM | 16.5 µM | 25.1 µM | 13.6 µM | 14.2 µM | 17.3 µM | 11.1 µM |
| COc1ccc(N(/C=C/C(=O)C(F)(F)F)CC(=O)c2ccc(Cl)c(Cl)c2)cc1 | 25.1 µM | 21.5 µM | 25.6 µM | 37.9 µM | 29.3 µM | 30.3 µM | 44 µM | > 100 µM | 35.4 µM | > 100 µM | 12.2 µM | 9.94 µM | 12.7 µM | 18.5 µM | 15.6 µM | 11.3 µM | 19.6 µM | 27 µM | 16.7 µM | 24.1 µM |
| NC1=Nc2cc(OCCCN3Cc4ccccc4C3)c(OCC3CC3)cc2C12CCCC2 | 11.9 µM | 3.49 µM | 3.47 µM | 21 µM | 8.68 µM | 16.9 µM | 4.7 µM | 4.88 µM | 3.94 µM | 3.14 µM | 3.44 µM | 1.61 µM | 1.85 µM | 3.72 µM | 2.69 µM | 3.79 µM | 2.35 µM | 2.07 µM | 2.2 µM | 1.49 µM |
| Cc1c2c(cc3c(=O)ccn(CCN(C)C)c13)c(=O)ccn2CCN(C)C | 26.3 µM | 19.5 µM | 25 µM | 31.7 µM | 34.9 µM | 21.8 µM | 44.4 µM | 20.5 µM | 33.7 µM | 34.3 µM | – | – | – | – | – | – | – | – | – | – |
| CCSc1nnc(-c2ccc3ccccc3c2O)n1-c1ccc(Cl)cc1 | > 100 µM | > 100 µM | > 100 µM | > 100 µM | > 100 µM | > 100 µM | > 100 µM | > 100 µM | > 100 µM | > 100 µM | 4.99 µM | 4 µM | 8.11 µM | 7.46 µM | 29.4 µM | 26.1 µM | > 100 µM | 4.28 µM | > 100 µM | 3.31 µM |
| COc1cc2c(cn1)[nH]c1ccccc12 | > 100 µM | > 100 µM | > 100 µM | > 100 µM | > 100 µM | > 100 µM | > 100 µM | > 100 µM | > 100 µM | > 100 µM | – | – | – | – | – | – | – | – | – | – |
| N#CC1CC2(C(=O)C1=O)c1ccccc1-c1ccccc12 (stereo not given) | > 100 µM | > 100 µM | > 100 µM | > 100 µM | > 100 µM | > 100 µM | > 100 µM | > 100 µM | > 100 µM | > 100 µM | – | – | – | – | – | – | – | – | – | – |

Source: PubChem BioAssay (NCI)
